Assay results reported in ChEMBL document CHEMBL6121047, “Design, Synthesis, and Evaluation of Selective PDE4 Inhibitors for the Therapy of Pulmonary Injury” (J Med Chem, 2025).
The source made the active and inactive calls. No cut-off for these calls is given here.

Key:
Mus musculus [1] = experiment: (§1) Anti-inflammatory activity against cigarette-smoke/LPS-induced COPD male C57BL/6 mouse model assessed as reduction in MMP9 level in BALF at 5 mg/kg pretreated with cigarette smoke exposure for 21 weeks with subsequent LPS induction twice on the first and 15th day followed by compound administration every day via gavage for 4 weeks; assay type: functional, organism-based
[2] = Acute toxicity in Sprague-Dawley rat assessed as effect on apparent kidney coefficient change at 1 g/Kg, po administered via gavage; assay type: organism-based; settings: in vivo, 1000 mg/kg
[3] = Oral bioavailability in Sprague-Dawley rat at 10 mg/kg measured upto 24 hrs by LC-MS/MS analysis; assay type: ADME, organism-based; settings: in vivo
Mus musculus [4] = experiment: as §1, with “TNF-alpha” for “MMP9”; assay type: functional, organism-based
Mus musculus [5] = experiment: Anti-inflammatory activity against LPS-induced acute lung injury male BALB/c mouse model assessed as reduction in total cell counts in BALF at 8 to 32 mg/kg administered once a day via gavage for 7 days followed by LPS stimulation and measured after 24 hrs; assay type: functional, organism-based; settings: dose 8-32 mg/kg, time 192.0 hrs
[6] = Acute toxicity in Sprague-Dawley rat assessed as pathological changes in heart at 1 g/Kg, po administered via gavage by H and E staining based analysis; assay type: organism-based; settings: in vivo, 1000 mg/kg
[7] = Acute toxicity in Sprague-Dawley rat assessed as effect on apparent lung coefficient change at 1 g/Kg, po administered via gavage; assay type: organism-based; settings: in vivo, 1000 mg/kg
[8] = Acute toxicity in Sprague-Dawley rat assessed as pathological changes in liver at 1 g/Kg, po administered via gavage by H and E staining based analysis; assay type: organism-based; settings: in vivo, 1000 mg/kg
[9] = Apparent volume of distribution in Sprague-Dawley rat at 5 mg/kg, iv measured upto 24 hrs by LC-MS/MS analysis; assay type: ADME, organism-based; settings: in vivo, read-out: Vz
[10] = AUC (0 to infinity) in Sprague-Dawley rat at 5 mg/kg, iv measured upto 24 hrs by LC-MS/MS analysis; assay type: ADME, organism-based; settings: in vivo
Mus musculus [11] = experiment: Anti-inflammatory activity against LPS-induced acute lung injury male BALB/c mouse model assessed as restoration of alveolar septa in lung at 8 to 32 mg/kg administered once a day via gavage for 7 days followed by LPS stimulation and measured after 24 hrs by H and E staining based analysis; assay type: functional, organism-based; settings: dose 8-32 mg/kg, time 192.0 hrs
Mus musculus [12] = experiment: as §1, with “reduction in bronchiole thickness at 5” for “reduction in MMP9 level in BALF at 5”, “4 weeks by H and E staining based microscopic analysis” for “4 weeks”; assay type: functional, organism-based
[13] = Tmax in Sprague-Dawley rat at 10 mg/kg, po measured upto 24 hrs by LC-MS/MS analysis; assay type: ADME, organism-based; settings: in vivo
[14] = Metabolic stability in rat liver microsomes assessed as half life incubated for 4 hrs in presence of NADPH by LC-MS analysis; assay type: ADME, Microsome
NCI-H292 = experiment: Anti-inflammatory activity against EGF-induced human NCI-H292 cells assessed as decrease in MUC5AC mRNA expression by RT-qPCR analysis; assay type: functional, cell-based; settings: dose 10-50 µM
Mus musculus [15] = experiment: Anti-inflammatory activity against LPS-induced acute lung injury male BALB/c mouse model assessed as reduction in IL-6 level in BALF at 8 to 32 mg/kg administered once a day via gavage for 7 days followed by LPS stimulation and measured after 24 hrs; assay type: functional, organism-based; settings: dose 8-32 mg/kg, time 192.0 hrs
[16] = Acute toxicity in Sprague-Dawley rat assessed as increase in body weight at 1 g/Kg, po administered via gavage and measured on day 14; assay type: organism-based; settings: in vivo, 1000 mg/kg
[17] = molecular target: T1, 3',5'-cyclic-AMP phosphodiesterase 4B (Homo sapiens, UniProt Q07343); experiment: Inhibition of PDE4B (unknown origin) using FAM-cAMP as substrate preincubated with compound for compound for 15 mins followed by substrate addition and measured after 30 mins by Envision multilabel reader analysis
T1 sequence (Q07343 whole entry): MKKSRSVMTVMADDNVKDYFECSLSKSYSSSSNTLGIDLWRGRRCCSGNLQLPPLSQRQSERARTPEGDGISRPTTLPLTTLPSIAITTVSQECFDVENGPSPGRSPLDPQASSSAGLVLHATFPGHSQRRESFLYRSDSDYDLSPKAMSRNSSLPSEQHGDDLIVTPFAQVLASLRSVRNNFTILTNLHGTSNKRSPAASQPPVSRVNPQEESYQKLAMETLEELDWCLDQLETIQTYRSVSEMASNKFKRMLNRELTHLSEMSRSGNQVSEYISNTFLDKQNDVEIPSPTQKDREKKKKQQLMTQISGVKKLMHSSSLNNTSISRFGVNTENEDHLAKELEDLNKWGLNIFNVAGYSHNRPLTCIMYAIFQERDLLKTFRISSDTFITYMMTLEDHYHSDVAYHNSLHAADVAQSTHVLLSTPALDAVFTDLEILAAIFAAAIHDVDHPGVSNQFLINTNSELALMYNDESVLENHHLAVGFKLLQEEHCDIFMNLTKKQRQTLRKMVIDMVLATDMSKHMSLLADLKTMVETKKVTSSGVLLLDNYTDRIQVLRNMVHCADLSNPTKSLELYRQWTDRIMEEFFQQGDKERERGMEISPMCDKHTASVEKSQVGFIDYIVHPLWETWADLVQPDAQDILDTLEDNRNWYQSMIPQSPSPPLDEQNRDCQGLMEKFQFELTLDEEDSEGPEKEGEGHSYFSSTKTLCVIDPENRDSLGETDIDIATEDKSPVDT

[18] = molecular target: T1, 3',5'-cyclic-AMP phosphodiesterase 4B; experiment: Inhibition of recombinant full length PDE4B (unknown origin) using FAM-cAMP as substrate at 1 uM preincubated with compound for compound for 15 mins followed by substrate addition and measured after 30 mins by Envision multilabel reader analysis relative to control; settings: time 45.0 min
Mus musculus [19] = experiment: Anti-inflammatory activity against LPS-induced acute lung injury male BALB/c mouse model assessed as reduction in TNF-alpha level in BALF at 8 to 32 mg/kg administered once a day via gavage for 7 days followed by LPS stimulation and measured after 24 hrs; assay type: functional, organism-based; settings: dose 8-32 mg/kg, time 192.0 hrs
[20] = Metabolic stability in dog liver microsomes assessed as half life incubated for 4 hrs in presence of NADPH by LC-MS analysis; assay type: ADME, Canis lupus familiaris, Microsome
Mus musculus [21] = experiment: Antifibrotic activity against LPS-induced acute lung injury male BALB/c mouse model assessed as decrease in collagen deposition at 8 to 32 mg/kg administered once a day via gavage for 7 days followed by LPS stimulation and measured after 24 hrs by masson staining based microscopic analysis; assay type: functional, organism-based; settings: dose 8-32 mg/kg, time 192.0 hrs
Mus musculus [22] = experiment: Anti-inflammatory activity against LPS-induced acute lung injury male BALB/c mouse model assessed as reduction in IL-1beta level in BALF at 8 to 32 mg/kg administered once a day via gavage for 7 days followed by LPS stimulation and measured after 24 hrs; assay type: functional, organism-based; settings: dose 8-32 mg/kg, time 192.0 hrs
[23] = Initial plasma concentration in Sprague-Dawley rat at 5 mg/kg, iv measured upto 24 hrs by LC-MS/MS analysis; assay type: ADME, organism-based
RAW264.7 = experiment: Anti-inflammatory activity in LPS-induced mouse RAW264.7 cells assessed as inhibition of TNF-alpha secretion level at 10 uM preincubated with compound for 1 hr followed by LPS addition and measured after 24 hrs by ELISA; assay type: functional, cell-based; settings: time 25.0 hrs
[24] = molecular target: Voltage-gated inwardly rectifying potassium channel KCNH2 (Homo sapiens, UniProt Q12809); experiment: Inhibition of hERG expressed in HEK293T cells; assay type: toxicity, cell-based
Chain of Voltage-gated inwardly rectifying potassium channel KCNH2 (Q12809 whole entry): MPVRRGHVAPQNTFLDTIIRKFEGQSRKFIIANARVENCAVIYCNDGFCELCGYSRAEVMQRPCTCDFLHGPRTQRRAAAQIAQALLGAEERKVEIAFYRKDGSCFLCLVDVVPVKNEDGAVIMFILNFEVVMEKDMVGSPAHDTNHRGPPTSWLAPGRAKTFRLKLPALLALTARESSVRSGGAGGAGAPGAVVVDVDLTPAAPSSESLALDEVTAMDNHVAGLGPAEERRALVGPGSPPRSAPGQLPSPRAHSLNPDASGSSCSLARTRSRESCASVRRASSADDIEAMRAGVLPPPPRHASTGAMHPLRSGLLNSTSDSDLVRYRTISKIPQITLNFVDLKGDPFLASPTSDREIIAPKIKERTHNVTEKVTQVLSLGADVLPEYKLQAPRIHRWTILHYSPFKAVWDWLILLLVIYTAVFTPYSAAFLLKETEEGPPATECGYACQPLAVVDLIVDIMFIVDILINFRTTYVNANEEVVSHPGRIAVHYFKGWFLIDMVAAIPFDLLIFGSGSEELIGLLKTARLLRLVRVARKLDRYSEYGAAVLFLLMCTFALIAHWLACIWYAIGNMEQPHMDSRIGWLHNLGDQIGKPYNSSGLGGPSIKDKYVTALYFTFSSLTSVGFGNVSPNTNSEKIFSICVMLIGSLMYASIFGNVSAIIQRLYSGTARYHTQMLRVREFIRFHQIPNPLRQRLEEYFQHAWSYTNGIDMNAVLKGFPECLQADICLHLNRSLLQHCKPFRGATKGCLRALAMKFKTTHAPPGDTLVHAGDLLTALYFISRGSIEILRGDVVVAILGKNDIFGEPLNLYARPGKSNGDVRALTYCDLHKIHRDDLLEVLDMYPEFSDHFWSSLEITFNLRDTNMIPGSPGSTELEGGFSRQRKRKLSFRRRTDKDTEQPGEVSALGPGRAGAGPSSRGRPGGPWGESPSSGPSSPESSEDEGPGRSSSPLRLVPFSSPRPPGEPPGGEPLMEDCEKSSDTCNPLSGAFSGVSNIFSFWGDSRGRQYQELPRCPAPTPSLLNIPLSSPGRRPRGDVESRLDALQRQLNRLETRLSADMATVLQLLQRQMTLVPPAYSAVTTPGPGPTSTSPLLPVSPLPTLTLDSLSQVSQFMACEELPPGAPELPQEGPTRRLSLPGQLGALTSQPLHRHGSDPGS

[25] = Acute toxicity in Sprague-Dawley rat assessed as pathological changes in kidney at 1 g/Kg, po administered via gavage by H and E staining based analysis; assay type: organism-based; settings: in vivo, 1000 mg/kg

In the case of O=C(Nc1nccs1)c1cccc2[nH]c(-c3ccc(OC(F)F)c(OCC4CC4)c3)nc12, the Activity (Mus musculus [1]) is reported as “Active”, the Activity [2] is reported as “Non-toxic” and the bioavailability [3] is reported as 4.59%. For the same compound, the Activity (Mus musculus [4]) was “Active”, the Activity (Mus musculus [5]) was “Active” and the Activity [6] was “Non-toxic”. For the same compound, the Activity [7] was “Non-toxic”, the Activity [8] was “Non-toxic” and the Vd [9] was 0.606 L/kg. For the same compound, the AUC(0-inf) [10] was 23.2 µg·h/mL, the Activity (Mus musculus [11]) was “Active” and the Activity (Mus musculus [12]) was “Active”. The Tmax [13] was 3 h, the half-life [14] was 1.03 h and the Activity (NCI-H292) was “Dose-dependent-effect”. The Activity (Mus musculus [15]) was “Active”, the Activity [16] was “Non-toxic” and the IC50 [17] was 0.0488 µM. The inhibition [18] was 89.9%, the Activity (Mus musculus [19]) was “Active” and the half-life [20] was 0.721 h. For the same compound, the Activity (Mus musculus [21]) was “Active”, the Activity (Mus musculus [22]) was “Active” and the C0 at 24 h [23] was 38.1 µg/mL. For the same compound, the Activity (RAW264.7) was “Active”, the IC50 [24] was greater than 30 µM and the Activity [25] was “Non-toxic”.
